Data published in article PMC9071491, “Fragment screening and structural analyses highlight the ATP-assisted ligand binding for inhibitor discovery against type 1 methionyl-tRNA synthetase” (Nucleic Acids Research, 2022).
Where two headings read alike, the source gives them in different places.

Assays:
[1] = molecular target: T1, SaMetRS (Staphylococcus aureus, UniProt P67578); test: isothermal titration calorimetry (ITC) assay; format: binding
T1 construct: full-length SaMetRS (SaMetRS-FL) (residues 1–657) was expressed and purified in the same manner; made in house; host or cells: E. coli BL21 (DE3)
T1 sequence (P67578 whole entry, the tested form may be a part): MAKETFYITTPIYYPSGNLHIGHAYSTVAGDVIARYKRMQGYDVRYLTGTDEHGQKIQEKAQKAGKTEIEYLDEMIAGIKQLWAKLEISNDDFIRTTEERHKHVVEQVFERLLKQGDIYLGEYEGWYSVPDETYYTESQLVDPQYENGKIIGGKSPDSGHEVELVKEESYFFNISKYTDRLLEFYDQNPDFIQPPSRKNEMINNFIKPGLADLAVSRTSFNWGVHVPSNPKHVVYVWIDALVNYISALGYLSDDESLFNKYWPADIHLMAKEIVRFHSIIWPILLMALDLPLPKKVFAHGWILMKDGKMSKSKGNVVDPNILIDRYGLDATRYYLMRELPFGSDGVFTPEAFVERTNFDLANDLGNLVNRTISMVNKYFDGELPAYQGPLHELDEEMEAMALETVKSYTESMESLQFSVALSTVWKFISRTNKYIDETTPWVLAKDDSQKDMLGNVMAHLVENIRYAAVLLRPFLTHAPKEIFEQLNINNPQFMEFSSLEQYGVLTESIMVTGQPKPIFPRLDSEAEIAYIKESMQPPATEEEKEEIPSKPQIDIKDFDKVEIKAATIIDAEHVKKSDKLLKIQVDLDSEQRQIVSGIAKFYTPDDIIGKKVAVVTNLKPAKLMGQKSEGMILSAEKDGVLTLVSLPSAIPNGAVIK
Method: The affinities of ligands to SaMetRS were measured by using a MicroCal PEAQ-ITC microcalorimeter. […] The interval between two injections was 150 s. The disassociation constants (Kd) were determined by fitting the calorimetric data to a one-site binding model by using MicroCal PEAQ-ITC analysis software.

[2] = molecular target: T1, SaMetRS; test: biochemical; format: binding
Method: Ligand binding usually stabilizes the protein during the thermal denaturation process, and a tighter binder causes a larger positive shift in the protein melting temperature (Tm) ([38]). The binding of ligands to SaMetRS was evaluated by the fluorescence-based thermal shift assay as described ([39]). Briefly, mixtures with a final volume of 20 μl that contained 4 μg of SaMetRS-FL, 4 × SYPRO orange fluorescence dye (Sigma-Aldrich) and different ligands (10 μM REP8839, 5 mM L-Met, 5 mM ATP, or 1 mM fragments) in TSA buffer (100 mM Tris pH 8.0, 150 mM NaCl) were prepared in 96-well plates. The mixtures were incubated at 25°C for 10 min and then heated from 25°C to 95°C at a rate of 1°C/min. The fluorescence intensity was recorded every 20 s by using a StepOnePlus Real-Time PCR instrument (Life Technologies). The melting curves, using the fluorescence signal as the ordinate and the temperature as the abscissa, were fitted by using StepOne™ software v2.3 to obtain the melting temperature (Tm) of the protein. Triplicate assays were performed, and the average Tm values were used. The thermal stabilization of SaMetRS that was caused by a ligand (a fragment, substrate or inhibitor) was termed ΔTm, and it was calculated by subtracting the Tm of SaMetRS without the ligand from the Tm of SaMetRS supplemented with the ligand as follows:
Fragment screening is a fast-growing strategy for designing drugs with novel scaffolds as well as for identifying new druggable sites ([51],[52]). A total of 1049 fragments or low molecular weight natural products were screened by using TSA to search for new binders to SaMetRS. Considering the potential beneficial effect of ATP on ligand binding to SaMetRS, a parallel experiment was carried out using SaMetRS, which was saturated with 5 mM ATP. Fragments were diluted to a final concentration of 1.0 mM. The Tm of apo or ATP-bound SaMetRS without adding fragments was used as a blank control, and REP8839 was used as a positive control. We considered fragments that could increase the Tm value of SaMetRS by more than 1.0°C (ΔTm > 1.0°C) as positive hits (Figure 4B).

[3] = molecular target: T1, SaMetRS; test: pretransfer editing assay (malachite green); format: biochemical
Method: A pretransfer editing assay was employed to evaluate the enzymatic activity of MetRS and the inhibitory activity of fragments to this enzyme. MetRS uses ATP to misactivate the noncognate L-norleucine (L-Norleu) to produce norleucyl adenylate and pyrophosphate (PPi). Norleucyl adenylate was hydrolyzed in the active site through pretransfer editing, and PPi was hydrolyzed by pyrophosphatase (PPiase). The pretransfer editing activity of MetRS was evaluated by measuring phosphate ion (Pi) production using a malachite green assay ([40],[41]). The assays were performed in 80 μl reaction mixtures consisting of 160 nM SaMetRS-FL or SaMetRS-dC or HcMetRS-dN or HcMetRS-dN/C, 100 μM ATP, 20 mM L-Norleu and 50 μg/ml PPiase in reaction buffer (30 mM HEPES pH 7.5, 150 mM NaCl, 30 mM KCl, 40 mM MgCl2, 1 mM DTT) at room temperature ([42]). The pyrophosphates released from the pretransfer editing reaction were decomposed into phosphates by PPiase. Then, 20 μl of malachite green reagent (2.45 M sulfuric acid, 0.1% w/v malachite green, 1.5% w/v ammonium molybdate tetrahydrate, and 0.2% v/v Tween 20) was added to each reaction, and the absorbance at 620 nm was recorded using a Synergy H1 microplate reader.
To measure the inhibitory activity of compounds against SaMetRS, the reactions of an 80 μl mixture consisting of 160 nM SaMetRS-FL (or HcMetRS-dN), 100 μM ATP, 20 mM L-norleucine, 50 μg/ml PPiase and 1 mM fragment (or inhibitor at different concentrations) in reaction buffer were incubated at room temperature for 30 min. Then, 20 μl of malachite green reagent was added to each reaction, and absorbance at 620 nm was recorded. The absorbance at 620 nm of the reaction without adding a compound (fragment or inhibitor) was A1, the absorbance of the reaction without adding MetRS was A0, and the absorbance of the reaction with adding a compound (fragment or inhibitor) was AC. The inhibitory rates of compounds on enzyme activity = (A1 – AC)/(A1 – A0) ×100%. For compounds P80, P21 and REP8839, the inhibitory rates were measured at various concentrations, and the data were fitted in GraphPad Prism 8 using the ‘log[inhibitor] versus response’ equation to calculate the IC50 values.
The inhibitory rates of these fragments against SaMetRS were then tested by a pretransfer editing assay. In the assay, MetRS used ATP to misactivate noncognate L-norleucine (L-Norleu) to produce norleucyl adenylate and PPi. The norleucyl adenylate was then quickly hydrolyzed (or ‘edited’) by MetRS in a tRNA-independent manner ([53–55]). In addition, PPi is hydrolyzed by pyrophosphatase, and phosphate production reflects the activity of MetRS in L-Norleu misactivation and pretransfer editing.

[4] = molecular target: T2, HcMetRS (Homo sapiens, UniProt P56192); test: tRNA-dependent ATP consumption assay; format: biochemical; conditions: HcMetRS-dN, even at high concentrations
T2 construct: a truncated HcMetRS without the N-terminal part (HcMetRS-dN) (residues 221–900); His6-SUMO (N, cleaved yes); made in house; host or cells: E. coli BL21 (DE3)
T2 sequence (P56192 221-900): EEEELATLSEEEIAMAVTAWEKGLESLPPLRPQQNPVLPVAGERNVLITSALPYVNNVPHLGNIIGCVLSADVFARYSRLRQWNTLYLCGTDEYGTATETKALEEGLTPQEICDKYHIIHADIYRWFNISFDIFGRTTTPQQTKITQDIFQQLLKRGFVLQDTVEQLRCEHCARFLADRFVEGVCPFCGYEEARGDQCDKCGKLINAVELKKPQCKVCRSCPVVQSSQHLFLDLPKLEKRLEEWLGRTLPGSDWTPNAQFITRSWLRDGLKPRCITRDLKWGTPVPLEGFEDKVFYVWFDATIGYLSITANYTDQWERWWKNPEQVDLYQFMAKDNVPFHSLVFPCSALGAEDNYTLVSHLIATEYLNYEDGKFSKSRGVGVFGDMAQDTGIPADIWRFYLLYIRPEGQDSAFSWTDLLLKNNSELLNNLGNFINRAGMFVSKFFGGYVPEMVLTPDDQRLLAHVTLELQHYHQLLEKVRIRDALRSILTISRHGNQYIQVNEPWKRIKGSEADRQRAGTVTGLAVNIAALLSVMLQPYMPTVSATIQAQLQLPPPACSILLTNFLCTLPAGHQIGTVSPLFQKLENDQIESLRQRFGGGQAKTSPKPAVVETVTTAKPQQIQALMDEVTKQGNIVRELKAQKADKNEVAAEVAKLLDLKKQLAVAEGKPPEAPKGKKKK
Method: (§1) The inhibitory activity of the compounds against the tRNA aminoacylation reaction of MetRS was evaluated by employing an ATP consumption assay ([43],[44]). In brief, 10 μl reactions consisting of 50 nM SaMetRS-FL or 100 nM HcMetRS-dN, 4 μM ATP, 500 μM L-Met, 0.5 mg/ml E. coli total tRNA in reaction buffer (30 mM HEPES pH 7.5, 150 mM NaCl, 30 mM KCl, 40 mM MgCl2, 0.1% BSA and 1 mM DTT) and compounds (P80, P21 and REP8839) at various concentrations were prepared and incubated at room temperature for 30 min. The reactions were then stopped by adding 10 μl of Kinase-Glo™ Reagent (Promega) and incubated at room temperature for 15 min. The luminescence, which reflects the concentration of the remaining ATP, was read on a Synergy H1 microplate reader (BioTek). The luminescence of the reaction without adding a compound was Lum1, the absorbance of the reaction without adding MetRS was Lum0, and the luminescence of the reaction with the added compound was LumC. The inhibitory rates of a compound on enzyme activity = (LumC – Lum1)/(Lum0 – Lum1) × 100%. The data were fitted in GraphPad Prism 8 with the ‘log[compound] versus response’ equation to calculate the IC50 values.

[5] = molecular target: T1, SaMetRS; test: tRNA-dependent ATP consumption assay; format: biochemical
Method: as §1

[6] = read-out: ΔTm (°C) Tm(Frg)-Tm(apo)
[7] = read-out: ΔTm (°C) Tm(Frg+ATP)-Tm(ATP)

Nc1ncnc2c1ncn2[C@@H]1O[C@H](COP(=O)(O)OP(=O)(O)OP(=O)(O)O)[C@@H](O)[C@H]1O [ATP]
fold more potent Kd of ATP with M3-88 premixed versus apo protein ([1]; SaMetRS premixed with M3-88 vs apo): approximately 4 fold | Kd ([1]; apo protein, 25°C, read-out: Kd, ATP to SaMetRS): 52 ± 6.7 µM | Kd ([1]; read-out: Kd, ATP to SaMetRS saturated with M3-88, SaMetRS preincubated with 5 mM M3-88, 25°C): 14.1 ± 0.7 µM

CC(C)(C)Sc1cccnc1N [T2-15]
ΔTm at 1000 µM [2, 6]: 2.5 °C | ΔTm at 1000 µM [2, 7]: 2.5 °C | inhibition at 1000 µM ([3]; read-out: Inhibitory rate (%)): 65.3 ± 3.1% | Kd ([1]; SaMetRS apo, without ATP, 25°C, read-out: Kd, fragment to SaMetRS alone): 78.7 ± 7.1 µM | Kd ([1]; SaMetRS preincubated with 5 mM ATP, 25°C, read-out: Kd, fragment to SaMetRS saturated with ATP): 54.6 ± 2.6 µM

NCCNc1cccc2ccccc12 [M2-293]
ΔTm at 1000 µM [2, 7]: 1.3 °C | inhibition at 1000 µM ([3]; read-out: Inhibitory rate (%)): 67.3 ± 1.1%

NCc1c[nH]c2ccccc12 [B63]
ΔTm at 1000 µM [2, 6]: 0.8 °C | ΔTm at 1000 µM [2, 7]: 1.7 °C | inhibition at 1000 µM ([3]; read-out: Inhibitory rate (%)): 38.2 ± 3.5%

Clc1cn2ccsc2n1 [M3-146]
ΔTm at 1000 µM [2, 6]: -0.1 °C | ΔTm at 1000 µM [2, 7]: 1.8 °C | inhibition at 1000 µM ([3]; read-out: Inhibitory rate (%)): < 20%

C=C(F)c1sc(CNCCCNc2cc(O)c3ccccc3n2)c(C)c1Br [REP8839, reference compound]
ΔTm at 10 µM [2, 6]: 11.8 °C | ΔTm at 10 µM [2, 7]: 17.5 °C | inhibition at 10 µM ([3]; read-out: Inhibitory rate (%)): > 99%

CNC(=O)c1ccc2c(c1)nc(-c1ccc(Br)c(O)c1)n2C(CNC(=O)COc1ccccc1C(C)(C)C)c1ccc(OC)c(OC)c1 (centres unmarked) [P80]
IC50 [3]: 0.0946 ± 0.0067 µM | inhibition of HcMetRS [4]: did not significantly inhibit | IC50 [5]: 0.223 ± 0.0123 µM

O=[N+]([O-])c1ccc2[nH]ncc2c1 [B128]
ΔTm at 1000 µM [2, 6]: 1.3 °C | ΔTm at 1000 µM [2, 7]: 2.1 °C | inhibition at 1000 µM ([3]; read-out: Inhibitory rate (%)): 30.4 ± 1.9%

NC1Cc2ccccc2C1 [M2-80]
ΔTm at 1000 µM [2, 6]: -0.1 °C | ΔTm at 1000 µM [2, 7]: 2.5 °C | inhibition at 1000 µM ([3]; read-out: Inhibitory rate (%)): < 20%

N[C@@H]1C[C@@H]1c1ccccc1 [B54]
inhibition at 1000 µM ([3]; read-out: Inhibitory rate (%)): < 20%

CNC(=O)c1ccc2c(c1)nc(-c1ccc(Br)c(O)c1)n2C(CNC(=O)OCc1ccccc1)c1ccc(OC)c(OC)c1 (centres unmarked) [P21]
IC50 [3]: 0.428 ± 0.053 µM | inhibition of HcMetRS [4]: did not significantly inhibit | IC50 ([5]; 50 nM SaMetRS-FL, 4 μM ATP, 500 μM L-Met, read-out: IC50, ATP consumption assay): 3.11 ± 0.48 µM

Nc1nc2ccccc2[nH]1 [M1-68]
ΔTm at 1000 µM [2, 6]: 0.1 °C | ΔTm at 1000 µM [2, 7]: 1.3 °C | inhibition at 1000 µM ([3]; read-out: Inhibitory rate (%)): < 20%

O=[N+]([O-])c1ccc(O)c(O)c1 [A6]
ΔTm at 1000 µM [2, 6]: 1.1 °C | ΔTm at 1000 µM [2, 7]: 1.2 °C | inhibition at 1000 µM ([3]; read-out: Inhibitory rate (%)): < 20%
